Measurements taken from US11098038B2, “Imidazole-based anticancer agents and derivatives thereof, and methods of making and using same” (The University of Toledo, priority 2017, dated 2021).

Row | melting point [°C] | Compound
1 | 224 to 226 | COc1ccc(NC(=O)Cc2ccc(/C=C/C(=O)c3ncc[nH]3)cc2)cc1 [Compound 19, (E)-2-(4-(3-(1H-imidazol-2-yl)-3-oxoprop-1-en-1-yl)phenyl)-N-(4-methoxyphenyl) acetamide]
2 | 211 to 214 | O=C(Cc1ccc(/C=C/C(=O)c2ncc[nH]2)cc1)Nc1ccccc1 [Compound 21, (E)-2-(4-(3-(1H-imidazol-2-yl)-3-oxoprop-1-en-1-yl)phenyl)-N-phenylacetamide]
3 | 208.5 | O=C(Cc1ccc(/C=C/C(=O)c2ncc[nH]2)cc1)NC1CCCCC1 [Compound 23, (E)-2-(4-(3-(1H-imidazol-2-yl)-3-oxoprop-1-en-1-yl)phenyl)-N-cyclohexylacetamide]
4 | 222 to 226 | Cn1ccnc1C(=O)/C=C/c1ccc(CC(=O)Nc2ccc(C(F)(F)F)cc2)cc1 [Compound 26, (E)-2-(4-(3-(1-methyl-1H-imidazol-2-yl)-3-oxoprop-1-en-1-yl)phenyl)-N-(4-(trifluoromethyl)phenyl) acetamide]
5 | 255 | O=C(Cc1ccc(/C=C/C(=O)c2ncc[nH]2)cc1)Nc1cc(F)c(F)c(F)c1 [Compound 33, (E)-2-(4-(3-(1H-imidazol-2-yl)-3-oxoprop-1-en-1-yl)phenyl)-N-(3,4,5-trifluorophenyl) acetamide]

The remaining lines, values behind:

Row | Compound | melting point [°C]
6 | O=C(Cc1ccc(/C=C/C(=O)c2ncc[nH]2)cc1)Nc1cccc2ccccc12 [Compound 17, (E)-2-(4-(3-(1H-imidazol-2-yl)-3-oxoprop-1-en-1-yl)phenyl)-N-(naphthalen-1-yl)acetamide] | 229 to 230
7 | Cn1ccnc1C(=O)/C=C/c1ccc(CC(=O)NC2CCCCC2)cc1 [Compound 29, (E)-N-cyclohexyl-2-(4-(3-(1-methyl-1-H-imidazol-2-yl)-3-oxoprop-1-en-1-yl)phenyl) acetamide] | 182.5
8 | O=C(Cc1ccc(/C=C/C(=O)c2ncc[nH]2)cc1)Nc1c(F)c(F)c(F)c(F)c1F [Compound 35, (E)-2-(4-(3-(1H-imidazol-2-yl)-3-oxoprop-1-en-1-yl)phenyl)-N-(perfluorophenyl)acetamide] | 235
9 | O=C(Cc1ccc(/C=C/C(=O)c2ncc[nH]2)cc1)Nc1cc(C(F)(F)F)cc(C(F)(F)F)c1 [Compound 37, (E)-2-(4-(3-(1H-imidazol-2-yl)-3-oxoprop-1-en-1-yl)phenyl)-N-(3,5-bis(trifluoromethyl)phenyl) acetamide] | 243
